Source: US8431563B2 (priority 2010, dated 2013)
Read-outs that look alike come from different tables or passages of the source.

How the values were obtained:
[1] = molecular target: T1, interaction between glucokinase (GK) and glucokinase regulatory protein (GKRP) (Homo sapiens, UniProt Q14397); experiment: biochemical; format: binding
T1 sequence (Q14397 1-625): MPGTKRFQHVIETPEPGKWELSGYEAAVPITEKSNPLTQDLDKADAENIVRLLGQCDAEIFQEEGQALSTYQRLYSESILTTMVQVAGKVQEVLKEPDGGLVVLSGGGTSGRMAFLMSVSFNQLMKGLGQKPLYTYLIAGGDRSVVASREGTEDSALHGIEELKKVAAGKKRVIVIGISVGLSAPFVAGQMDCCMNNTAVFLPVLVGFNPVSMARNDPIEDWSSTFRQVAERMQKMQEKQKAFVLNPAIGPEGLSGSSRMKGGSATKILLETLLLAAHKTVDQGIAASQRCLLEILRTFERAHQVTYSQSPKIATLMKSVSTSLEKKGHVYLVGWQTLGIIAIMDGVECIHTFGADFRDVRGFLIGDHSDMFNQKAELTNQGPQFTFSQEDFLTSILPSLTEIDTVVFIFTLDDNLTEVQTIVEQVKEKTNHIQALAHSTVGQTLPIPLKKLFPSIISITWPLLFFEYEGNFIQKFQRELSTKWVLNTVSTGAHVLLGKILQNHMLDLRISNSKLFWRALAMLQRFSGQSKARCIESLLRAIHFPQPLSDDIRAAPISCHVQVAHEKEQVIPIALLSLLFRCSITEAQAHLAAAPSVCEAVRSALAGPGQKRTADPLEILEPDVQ
Procedure, shortened: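 Avi-tagged human GKRP preincubated with compound for 20 min at room temperature, then 6 nM GK-fluorescein (concentration of added solution) introduced and incubated 2 h in the dark. Buffer: 20 mM Tris pH 7.5, 0.05% BSA, 1 mM DTT, 1 μM sorbitol-6-phosphate. Plate read on a fluorescence reader.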

[2] = molecular target: T2, GKRP (Glucokinase Regulatory Protein) with human His-hepatic GK (Homo sapiens, UniProt Q14397); experiment: biochemical
T2 sequence (Q14397 1-625): T1 sequence (Q14397 1-625)
Procedure, shortened: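 Human His-tagged hepatic GK (30 nM in the 5× working stock) in 50 mM Tris pH 7.5, 4 mM MgCl2, 6% DMSO with DTT, BSA and Brij-35. Enzyme was added after a 30 min step and reacted 30 min at room temperature. The reaction was stopped with acetonitrile and 13C-glucose-6-phosphate formed from 13C-glucose was quantified by LC MS/MS.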

[3] = avi-tagged GKRP, GK-fluorescein, AlphaScreen beads, read-out: GK-GKRP IC50 (Binding)
[4] = 13C-glucose-6-phosphate formation, 280 nM GKRP (10×), 30 nM GK (5×), read-out: GK-GKRP EC50 (LC MS/MS-2)
[5] = read-out: GK-GKRP IC50 (Binding)
[6] = read-out: GK-GKRP EC50 (LC MS/MS-2)

With CC(O)(c1ccc(N2CCN(S(=O)(=O)c3cccs3)C[C@@H]2CN2C3COCC2C(O)C3)cc1)C(F)(F)F (single isomer, unassigned) [Example 78 Peak #1] the IC50 [1, 3] was 44 nM and the EC50 [2, 4] was 146 nM.
For CC(O)(c1ccc(N2CCN(S(=O)(=O)c3cccs3)C[C@@H]2CN2C3COCC2C(O)C3)cc1)C(F)(F)F (single isomer, unassigned) [Example 78 Peak #2], the IC50 [1, 3] was 49 nM and the EC50 [2, 4] was 60 nM.
CC(O)(c1ccc(N2CCN(S(=O)(=O)c3cccs3)C[C@@H]2CN2C3COCC2C(O)C3)cc1)C(F)(F)F (single isomer, unassigned) [Example 78 Peak #3] gave an IC50 [1, 3] of 33 nM and an EC50 [2, 4] of 36 nM.
In the case of CC(O)(c1ccc(N2CCN(S(=O)(=O)c3cccs3)C[C@@H]2CN2C3COCC2C(O)C3)cc1)C(F)(F)F (single isomer, unassigned) [Example 78 Peak #4], the IC50 [1, 3] is reported as 40 nM and the EC50 [2, 4] is reported as 46 nM.
O=S(=O)(c1cccs1)N1CCN(c2ncc(C(O)(C(F)(F)F)C(F)(F)F)cn2)[C@@H](CN2C3COCC2C(O)C3)C1 (single isomer, unassigned) [Example 79 Peak #1] gave an IC50 [1, 3] of 49 nM and an EC50 [2, 4] of 50 nM.
For O=S(=O)(c1cccs1)N1CCN(c2ncc(C(O)(C(F)(F)F)C(F)(F)F)cn2)[C@@H](CN2C3COCC2C(O)C3)C1 (single isomer, unassigned) [Example 79 Peak #2], the IC50 [1, 3] was 32 nM and the EC50 [2, 4] was 73 nM.
C[C@H]1COCCN1C[C@H]1CN(S(=O)(=O)c2cccs2)CCN1c1ccc(C(O)(CO)C(F)(F)F)cc1 (single isomer, unassigned) [Example 83 Peak #1] gave an IC50 [1, 3] of 32 nM and an EC50 [2, 4] of 68 nM.
Compound C[C@H]1COCCN1C[C@H]1CN(S(=O)(=O)c2cccs2)CCN1c1ccc(C(O)(CO)C(F)(F)F)cc1 (single isomer, unassigned) [Example 83 Peak #2] has an IC50 [1, 3] of 22 nM and an EC50 [2, 4] of 16 nM.
For CC(O)(c1ccc(N2CCN(S(=O)(=O)c3cccs3)C[C@@H]2CN2[C@@H]3COC[C@H]2CC(=O)C3)cc1)C(F)(F)F (single isomer, unassigned) [Example 106 Peak#1], the IC50 [1, 3] was 52 nM and the EC50 [2, 4] was 88 nM.
Work on CC(O)(c1ccc(N2CCN(S(=O)(=O)c3cccs3)C[C@@H]2CN2[C@@H]3COC[C@H]2CC(=O)C3)cc1)C(F)(F)F (single isomer, unassigned) [Example 106 Peak#2] yielded an IC50 [1, 3] of 61 nM and an EC50 [2, 4] of 142 nM.
Work on CC(O)(c1ccc(N2CCN(S(=O)(=O)c3cccs3)C[C@@H]2CN2CCOC[C@H]2CO)cc1)C(F)(F)F (single isomer, unassigned) [Example 110 Peak #1] yielded an IC50 ([1]; GK-GKRP IC50 (Binding)) of 101 nM and an EC50 ([2]; GK-GKRP EC50 (LC MS/MS-2)) of 156 nM.
CC(O)(c1ccc(N2CCN(S(=O)(=O)c3cccs3)C[C@@H]2CN2CCOC[C@H]2CO)cc1)C(F)(F)F (single isomer, unassigned) [Example 110 Peak #2] was tested, and the IC50 [1, 5] was 79 nM and the EC50 [2, 6] was 132 nM.
In the case of CC(O)(c1ccc(N2CCN(S(=O)(=O)c3cccs3)C[C@@H]2CN2CCOC[C@@H]2CO)cc1)C(F)(F)F (single isomer, unassigned) [Example 111 Peak #1], the IC50 [1, 3] is reported as 64 nM and the EC50 [2, 4] is reported as 99 nM.
For CC(O)(c1ccc(N2CCN(S(=O)(=O)c3cccs3)C[C@@H]2CN2CCOC[C@@H]2CO)cc1)C(F)(F)F (single isomer, unassigned) [Example 111 Peak #2], the IC50 [1, 5] was 67 nM and the EC50 [2, 6] was 113 nM.
With CC(O)(c1ccc(N2CCN(S(=O)(=O)c3cccs3)C[C@@H]2CN2CCOCC2CNS(C)(=O)=O)cc1)C(F)(F)F (single isomer, unassigned) [Example 112 Peak #1] the IC50 [1, 5] was 275 nM and the EC50 [2, 6] was 986 nM.
In the case of CC(O)(c1ccc(N2CCN(S(=O)(=O)c3cccs3)C[C@@H]2CN2CCOCC2CNS(C)(=O)=O)cc1)C(F)(F)F (single isomer, unassigned) [Example 112 Peak #2], the IC50 ([1]; GK-GKRP IC50 (Binding)) is reported as 210 nM and the EC50 ([2]; GK-GKRP EC50 (LC MS/MS-2)) is reported as 332 nM.
CC(O)(c1ccc(N2CCN(S(=O)(=O)c3cccs3)C[C@@H]2CN2CCOCC2c2ccc(F)cc2)cc1)C(F)(F)F (single isomer, unassigned) [Example 115 Peak #1] showed an IC50 [1, 3] of 589 nM and an EC50 [2, 4] of 308 nM.
Compound Cn1cnc(COC[C@H]2CN(S(=O)(=O)c3cccs3)CCN2c2ccc(C(C)(O)C(F)(F)F)cc2)c1 (single isomer, unassigned) [Example 119 Peak #1] has an IC50 [1, 3] of 972 nM and an EC50 [2, 4] of 235 nM.
Cn1cnc(COC[C@H]2CN(S(=O)(=O)c3cccs3)CCN2c2ccc(C(C)(O)C(F)(F)F)cc2)c1 (single isomer, unassigned) [Example 119 Peak #2] was tested, and the IC50 [1, 3] was 979 nM and the EC50 [2, 4] was 206 nM.
C[C@H]1COCCN1C[C@H]1CN(S(=O)(=O)c2ccc(N)nc2)CCN1c1ccc([C@@](C)(O)C(F)(F)F)cc1 (single isomer, unassigned) [Example 125 Peak #1] showed an IC50 [1, 3] of 4 nM and an EC50 [2, 4] of 26 nM.
C[C@H]1COCCN1C[C@H]1CN(S(=O)(=O)c2ccc(N)nc2)CCN1c1ccc(C(C)(O)C(F)(F)F)cc1 (single isomer, unassigned) [Example 125 Peak #2] gave an IC50 [1, 3] of 7 nM and an EC50 [2, 4] of 18 nM.
CC1(C)C(=O)NCCN1C[C@H]1CN(S(=O)(=O)c2cccs2)CCN1c1ccc(C(C)(O)C(F)(F)F)cc1 (single isomer, unassigned) [Example 180 Peak #1] showed an IC50 [1, 3] of 11 nM and an EC50 [2, 4] of 40 nM.
CC1(C)C(=O)NCCN1C[C@H]1CN(S(=O)(=O)c2cccs2)CCN1c1ccc(C(C)(O)C(F)(F)F)cc1 (single isomer, unassigned) [Example 180 Peak #2] gave an IC50 [1, 3] of 8 nM and an EC50 [2, 4] of 42 nM.
CC(C)C1C(=O)NCCN1C[C@H]1CN(S(=O)(=O)c2cccs2)CCN1c1ccc(C(C)(O)C(F)(F)F)cc1 (single isomer, unassigned) [Example 181 Peak #1] gave an IC50 [1, 3] of 43 nM and an EC50 [2, 4] of 63 nM.
Compound CC(C)C1C(=O)NCCN1C[C@H]1CN(S(=O)(=O)c2cccs2)CCN1c1ccc(C(C)(O)C(F)(F)F)cc1 (single isomer, unassigned) [Example 181 Peak #2] has an IC50 [1, 3] of 1 nM and an EC50 [2, 4] of 14 nM.
Compound CC(C)C1C(=O)NCCN1C[C@H]1CN(S(=O)(=O)c2ccc(N)s2)CCN1c1ncc(C(O)(C(F)(F)F)C(F)(F)F)cn1 (single isomer, unassigned) [Example 184 Peak #1] has an IC50 [1, 3] of 1 nM and an EC50 [2, 4] of 12 nM.
With CC(O)(c1ccc(N2CCN(S(=O)(=O)c3cccs3)C[C@@H]2CS(=O)(=O)c2ccccc2)cc1)C(F)(F)F (single isomer, unassigned) [Example 187 Peak#1] the IC50 [1, 3] was 41 nM and the EC50 [2, 4] was 49 nM.
CC(O)(c1ccc(N2CCN(S(=O)(=O)c3cccs3)C[C@@H]2CS(=O)(=O)c2ccccc2)cc1)C(F)(F)F (single isomer, unassigned) [Example 187 Peak#2] showed an IC50 [1, 3] of 59 nM and an EC50 [2, 4] of 52 nM.
For CC(O)(c1ccc(N2CCN(S(=O)(=O)c3cccs3)C[C@@H]2C[S+]([O-])c2ccc(F)cc2)cc1)C(F)(F)F (single isomer, unassigned) [Example 191 Peak#2], the IC50 [1, 3] was 425 nM and the EC50 [2, 4] was 252 nM.
In the case of CC(O)(c1ccc(N2CCN(S(=O)(=O)c3cccs3)C[C@@H]2C[S+]([O-])c2ccc(F)cc2)cc1)C(F)(F)F (single isomer, unassigned) [Example 191 Peak#3], the IC50 [1, 3] is reported as 259 nM and the EC50 [2, 4] is reported as 262 nM.
In the case of CC(O)(c1ccc(N2CCN(S(=O)(=O)c3cccs3)C[C@@H]2CN2C3COCC2C(O)C3)cc1)C(F)(F)F (single isomer, unassigned; peak #1) [Example 77 Peak #1], the IC50 [1, 3] is reported as 13 nM and the EC50 [2, 4] is reported as 38 nM.
